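A five-concentration, 48-hour dose response in 96-well plates underlies each endpoint, interpolated linearly between surrounding concentrations. Here, GI50 denotes the concentration required for 50% inhibition of growth.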 Active and inactive are the calls of the source. Rule as the data show it: active = GI50 up to about 1.1 µM and inactive = higher.

These results are taken from ChEMBL document CHEMBL1201862, “PubChem BioAssay data set” (2004).

Holding throughout (assay): growth of human tumour cells (NCI), 48 h
For test [1], the system named is PC-3.
Test [2] concerns UACC-257.
For test [3], the system named is HCC 2998.
Test [4] has as its system RPMI-8226.
The test system of test [5] is U-251.
Test [6] has as its system KM12.
The subject of test [7] is MDA-MB-435.
In test [8] the test system is SK-MEL-5.
Test [9] deals with SN12C.
In test [10] the test system is OVCAR-8.
For test [11], the system named is IGROV-1.
In test [12] the test system is HCT-116.
The test system of test [13] is NCI/ADR-RES.
For test [14], the system named is HOP-62.
In test [15] the test system is K562.
The subject of test [16] is MCF7.
For test [17], the system named is BT-549.
Test [18] relates to OVCAR-5.
Test [19] relates to Malme-3M.
Test [20] relates to MDA-N.

`Cc1ccc(-c2[nH]c(=O)n(C3OC(CO)C(O)C(O)C3O)c(=O)c2C#N)cc1` (centres undefined): the GI50 in test [1], in test [2], in [3], in test [4], in [5] and in [6] was > 100 µM (inactive) throughout. The GI50 in test [7], in test [8], in [9], in [10], in [11] and in [12] was > 100 µM (inactive) each time. Besides, the GI50 in test [13], in test [14], in test [15], in [16], in test [17] and in test [18] was > 100 µM (inactive) throughout.
Regarding `O=c1cccc(Cl)[nH]1`, the GI50 in test [1], in test [2], in [4], in test [5], in test [6] and in test [7] was > 100 µM (inactive) each time. Further, the GI50 in [8] is 27 µM (inactive); in test [9], > 100 µM (inactive); in test [10], > 100 µM (inactive); in [11] it was > 100 µM (inactive); in test [12] it was > 100 µM (inactive); in test [13], > 100 µM (inactive). For the same molecule, the GI50 in test [19], in [14], in test [15], in test [16], in test [17] and in test [18] was > 100 µM (inactive) throughout.
Consider `OC(c1ccccc1)C(F)(F)c1nc2ccccc2o1` (centres undefined), for which the GI50 is > 100 µM (inactive) in test [1]; > 100 µM (inactive) in [2]; > 100 µM (inactive) in [3]; 70 µM (inactive) in test [4]; > 100 µM (inactive) in [5]; > 100 µM (inactive) in [6]. The GI50 is 82 µM (inactive) in test [7]; 77.1 µM (inactive) in [8]; > 100 µM (inactive) in test [10]; > 100 µM (inactive) in [11]; > 100 µM (inactive) in test [12]; 89.3 µM (inactive) in test [13]. The GI50 in [14] is > 100 µM (inactive); in test [15], 27.9 µM (inactive); in test [16], > 100 µM (inactive); in test [17], > 100 µM (inactive).
With `O=C(O/N=c1/ccc(=O)/c(=N\OC(=O)c2ccccc2)c1=O)c1ccccc1`, the GI50 in [1] was 76.4 µM (inactive); in [3], > 100 µM (inactive); in test [4], 79.8 µM (inactive); in [5] it was > 100 µM (inactive); in test [6], > 100 µM (inactive); in test [7], 53.6 µM (inactive). Also, the GI50 is > 100 µM (inactive) in [20]; > 100 µM (inactive) in test [8]; > 100 µM (inactive) in test [9]; > 100 µM (inactive) in test [10]; 89.3 µM (inactive) in test [11]; > 100 µM (inactive) in [12]. For the same molecule, the GI50 in [13] was > 100 µM (inactive); in [14] it was > 100 µM (inactive); in test [15], 39.4 µM (inactive); in [16], 1.81 µM (inactive); in test [18], > 100 µM (inactive).
On to `CSc1cc(Cl)c(C)cc1S(=O)(=O)NC(=O)NNc1ccccn1`, for which the GI50 in [1], in test [3], in test [5], in test [6], in test [7] and in test [20] was > 100 µM (inactive) throughout. Also, the GI50 in test [8], in test [9], in test [10], in [11], in test [12] and in test [13] was > 100 µM (inactive) each time. The GI50 in test [19], in test [14], in test [15], in [16] and in [18] was > 100 µM (inactive) each time.
In the case of `COc1cc2c(cc1OC)C1(COc3cc(O)c(O)c(O)c3C1=O)C2` (centres undefined), the GI50 in [1], in test [2], in test [4], in [5], in test [6] and in test [7] was > 50 µM (inactive) in each case. The GI50 in [20], in [8], in [9], in test [10], in test [11] and in [12] was > 50 µM (inactive) in each case. The GI50 in [13] was > 50 µM (inactive); in test [19], > 50 µM (inactive); in test [14], > 50 µM (inactive); in [15], > 50 µM (inactive); in test [16], 0.005 µM (active); in test [18], > 50 µM (inactive).
For the molecule `Nc1ccc(SC23CC4CC(CC(C4)C2)C3)cc1`, the GI50 in test [1] was > 100 µM (inactive); in test [2], > 100 µM (inactive); in [3], > 100 µM (inactive); in test [4] it was > 100 µM (inactive); in [5], 78.3 µM (inactive); in test [6] it was > 100 µM (inactive). The GI50 in test [7], in [8], in test [9], in test [10], in [11] and in [12] was > 100 µM (inactive) in each case. Moreover, the GI50 is > 100 µM (inactive) in test [13]; > 100 µM (inactive) in test [19]; > 100 µM (inactive) in [14]; > 100 µM (inactive) in test [15]; 61.8 µM (inactive) in test [16]; > 100 µM (inactive) in [17]. Besides, the GI50 in test [18] was > 100 µM (inactive).
As for `C#CCC(O)c1ccc(OC)c(OCc2ccccc2)c1` (centres undefined), the GI50 is > 100 µM (inactive) in test [1]; 52.1 µM (inactive) in test [2]; > 100 µM (inactive) in test [3]; > 100 µM (inactive) in [4]; > 100 µM (inactive) in test [5]; > 100 µM (inactive) in test [6]. Besides, the GI50 in test [7] is > 100 µM (inactive); in test [20], > 100 µM (inactive); in test [8], 46.9 µM (inactive); in [9], > 100 µM (inactive); in test [10] it was > 100 µM (inactive); in test [11], > 100 µM (inactive). Also, the GI50 in [12] is > 100 µM (inactive); in [13] it was 82.2 µM (inactive); in test [19], > 100 µM (inactive); in test [14], > 100 µM (inactive); in [15] it was 61.9 µM (inactive); in [16], > 100 µM (inactive). In addition, the GI50 in test [18] is > 100 µM (inactive).
As for `CCN1CCCC(C#N)(c2ccccc2)CC1` (centres undefined), the GI50 in [1], in test [2], in test [3], in test [4], in test [5] and in [6] was > 100 µM (inactive) throughout. For the same molecule, the GI50 in [20], in test [8], in test [10], in test [11], in test [12] and in [13] was > 100 µM (inactive) each time. Besides, the GI50 in [19], in test [14], in test [15] and in test [18] was > 100 µM (inactive) in each case.
For the molecule `Oc1ccc(-c2nc3cc(C(F)(F)F)ccc3n2CC2CCCN3CCCCC23)cc1` (centres undefined), the GI50 in test [1] is 14.1 µM (inactive); in test [2] it was 16.3 µM (inactive); in test [3] it was 9.75 µM (inactive); in test [4] it was 15.6 µM (inactive); in [5], 14.8 µM (inactive); in [6], 15.3 µM (inactive). Further, the GI50 is 13.5 µM (inactive) in [7]; 16.2 µM (inactive) in test [20]; 14.1 µM (inactive) in test [8]; 16 µM (inactive) in [10]; 12.7 µM (inactive) in [11]; 15.7 µM (inactive) in test [12]. Also, the GI50 was 16.5 µM (inactive) in test [13]; 12.1 µM (inactive) in test [14]; 15.5 µM (inactive) in [15]; 12.6 µM (inactive) in test [16]; 13.8 µM (inactive) in [18].
`C[C@@H]1C[C@@H]([C@H](O)CC2CC(=O)NC(=O)C2)C(=O)[C@@H](C)C1` [CYCLOHEXIMIDE]: the GI50 in test [2] is 0.0912 µM (active); in test [3], 0.0378 µM (active); in [4], 0.0362 µM (active); in test [5], 0.0603 µM (active); in test [6], 0.0202 µM (active); in [8], 0.0248 µM (active). In addition, the GI50 in [9] was 0.0199 µM (active); in [10], 0.044 µM (active); in test [11] it was 0.0532 µM (active); in [12], 0.0738 µM (active); in test [19], 0.0889 µM (active); in test [14] it was 0.0596 µM (active). Further, the figures for the GI50 in [15] and in test [18] were 0.0528 µM (active) and 0.141 µM (active), respectively.
